This passage reports IC50 results from patent publication US20230101747A1 (Schrödinger, Inc., priority 2019, published 2023).

Assay [1] addresses T1, Full length human CDC7 protein co-expressed with DBF4 (Homo sapiens, UniProt O00311).
T1 construct: Full length human CDC7 protein co-expressed with DBF4; purchased SignalChem (China)
Description: CDC7 kinase biochemical assay (ADP-Glo, PDKtide substrate). As to conditions: 0.1 nM CDC7/DBF4, 1 uM ATP, 10 uM PDKtide, 4 h; read-out: CDC7 ADP-Glo PDKtide IC50. The method in brief:
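ADP-Glo luminescence measured ADP made over a 4 h reaction of 0.1 nM CDC7/DBF4 (full-length human) with 10 uM PDKtide and 1 uM ATP. Buffer was 40 mM Tris pH 7.5 with 20 mM MgCl2, 0.1 mg/ml BSA, 50 uM DTT. Inhibition normalized to DMSO and positive-control inhibitor wells.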
In general terms: ADP-Glo first removes unused ATP, then detects ADP through luciferase.

Assay [2] concerns phosphorylation of MCM2 S53 (CDC7 substrate) in colo205 cells. Description: Phosphorylated MCM2 MSD electrochemiluminescence assay. The format is cell-based. To be noted: Homo sapiens, COLO 205; colo205 cells, 20 h incubation; read-out: pMCM2-S53 MSD Colo205 IC50. How it is done: Phosphorylated MCM2 MSD Electrochemiluminescence Assay
The effect of CDC7 inhibitors on cellular phosphorylation of the CDC7 substrate MCM2 was determined using the following protocol:
A total of 40,000 colo205 cells in 100 uL culture medium (1640 medium+10% Fetal bovine serum+1% Penicillin-Streptomycin) were plated in 96-well cell culture plates and allowed to attach for 6 hours. 3-fold serial dilutions of test compounds were prepared in completed PBS at 25× final concentration and 4 uL of each were added to the cells and incubated for 20 hours at 37° C., 5% CO2. Each concentration was tested in duplicate. After the 20 h incubation, cells were washed with 150 uL PBS and lysed with 40 uL MSD lysis buffer (obtained from Meso Scale Diagnostics) supplied with 1× complete ULTRA cocktail inhibitor (obtained from Roche). To detect phosphorylation of MCM2 S53, 30 μL of capture antibody solution (obtained from Abnova, catalog number H00004171-M01, 1:500) was added to each well of MULTI-ARRAY 96-well High Bind Plate, and incubated overnight. The antibody solution was removed, wells blocked with BSA solution and plates washed, followed by addition of 30 ul of cell lysate per well. After 2 h incubation, plates were washed. 30 μL of 1× detection antibody solution (obtained from Abcam, catalog number ab109133, 1:1000) was then added to each well and incubate for 1 hour. Plates were washed and 30 μL of 1× secondary antibody solution (obtained from MSD, catalog number R32AB-1, 1:5000) was added to each well and incubate for 1 hour. Plates were washed and 150 μL of 1× Read Buffer T was added to each well of the MSD plate. The electrochemiluminescence signal was measured on a MESO SECTOR S600 plate reader. The percentage of remaining phosphorylated MCM2 signal was calculated following the equation below.
HC (high control): Cells treated with DMSO Cpds: Cells treated with test compounds LC (low control): Cells treated with positive control CDC7 inhibitor

T1 sequence (O00311 whole entry): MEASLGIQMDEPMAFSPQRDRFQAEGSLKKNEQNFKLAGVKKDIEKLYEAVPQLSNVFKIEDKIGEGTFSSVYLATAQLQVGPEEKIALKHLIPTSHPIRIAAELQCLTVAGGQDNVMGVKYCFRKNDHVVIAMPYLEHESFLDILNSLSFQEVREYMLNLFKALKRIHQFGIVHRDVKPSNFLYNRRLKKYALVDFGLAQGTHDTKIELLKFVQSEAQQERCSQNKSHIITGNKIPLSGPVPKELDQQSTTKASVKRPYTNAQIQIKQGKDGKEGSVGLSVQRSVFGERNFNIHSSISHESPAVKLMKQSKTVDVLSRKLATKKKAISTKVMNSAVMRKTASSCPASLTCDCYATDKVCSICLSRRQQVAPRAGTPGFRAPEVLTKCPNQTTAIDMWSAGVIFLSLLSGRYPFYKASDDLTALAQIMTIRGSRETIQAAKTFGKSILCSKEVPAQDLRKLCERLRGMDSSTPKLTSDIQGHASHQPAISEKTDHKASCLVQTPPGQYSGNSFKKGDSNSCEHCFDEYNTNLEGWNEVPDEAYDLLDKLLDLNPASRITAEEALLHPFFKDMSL
T1 sequence (Q9UBU7 whole entry partner): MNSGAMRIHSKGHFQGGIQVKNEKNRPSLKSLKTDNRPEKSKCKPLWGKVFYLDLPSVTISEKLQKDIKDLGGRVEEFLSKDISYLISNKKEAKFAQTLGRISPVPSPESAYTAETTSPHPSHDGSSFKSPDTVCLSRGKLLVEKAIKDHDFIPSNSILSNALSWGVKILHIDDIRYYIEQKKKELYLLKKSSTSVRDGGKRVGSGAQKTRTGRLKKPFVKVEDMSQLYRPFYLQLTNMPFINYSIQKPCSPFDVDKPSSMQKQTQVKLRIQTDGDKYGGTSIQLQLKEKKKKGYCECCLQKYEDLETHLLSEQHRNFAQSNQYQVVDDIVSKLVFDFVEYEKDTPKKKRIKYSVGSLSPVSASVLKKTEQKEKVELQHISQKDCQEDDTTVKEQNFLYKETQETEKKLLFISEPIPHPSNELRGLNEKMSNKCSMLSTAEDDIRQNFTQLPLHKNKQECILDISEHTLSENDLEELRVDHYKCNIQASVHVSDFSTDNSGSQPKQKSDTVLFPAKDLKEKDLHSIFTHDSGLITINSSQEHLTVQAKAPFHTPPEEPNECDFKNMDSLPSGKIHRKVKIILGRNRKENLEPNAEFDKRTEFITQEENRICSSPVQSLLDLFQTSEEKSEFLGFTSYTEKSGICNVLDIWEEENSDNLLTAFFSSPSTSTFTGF

Consider `C[C@H]1CN2CCCc3c(-c4cn[nH]c4)sc(c32)C(=O)N1` [Compound 30, (S)-7-methyl-2-(1H-pyrazol-4-yl)-4,5,7,8-tetrahydro-3H-1-thia-5a,8-diazabenzo[cd]azulen-9(6H)-one], for which the IC50 in assay [1] was less than 1 nM; in assay [2], 41 nM.
For `O=C1N[C@H](C2CCC2)CN2CCOc3c(-c4cn[nH]c4)sc1c32` [Compound 19, (R)-7-cyclobutyl-2-(1H-pyrazol-4-yl)-4,5,7,8-tetrahydro-3-oxa-1-thia-5a,8-diazabenzo[cd]azulen-9(6H)-one], the half-maximal inhibitory concentration (IC50) in assay [1] is less than 1 nM; in assay [2] it was 57 nM.
With `O=C1NC[C@H](CO)N2CCOc3c(-c4cn[nH]c4)sc1c32` [Compound 33, (R)-6-(hydroxymethyl)-2-(1H-pyrazol-4-yl)-4,5,7,8-tetrahydro-3-oxa-1-thia-5a,8-diazabenzo[cd]azulen-9(6H)-one], the IC50 in assay [1] was less than 1 nM; in assay [2] it was 80 nM.
With `O=C1N[C@@H]([C@H]2CCCO2)CN2CC(F)(F)Cc3c(-c4cn[nH]c4)sc1c32` (single isomer, unassigned) [Compound 118], the IC50 in assay [1] was less than 1 nM; in assay [2], 5 nM.
In the case of `CC(C)(O)C[C@@H]1CNC(=O)c2sc(-c3cn[nH]c3)c3c2N1CCO3` [Compound 104, (R)-6-(2-hydroxy-2-methylpropyl)-2-(1H-pyrazol-4-yl)-4,5,7,8-tetrahydro-3-oxa-1-thia-5a,8-diazabenzo[cd]azulen-9(6H)-one], the IC50 is less than 1 nM in assay [1] and 150 nM in assay [2].
Regarding `O=C1N[C@H](C2CCC2)CN2CC(F)(F)Oc3c(-c4cn[nH]c4)sc1c32` [Compound 100, (R)-7-cyclobutyl-4,4-difluoro-2-(1H-pyrazol-4-yl)-4,5,7,8-tetrahydro-3-oxa-1-thia-5a,8-diazabenzo[cd]azulen-9(6H)-one], the IC50 is less than 1 nM in assay [1] and 23 nM in assay [2].
The matching figures for `Cc1cnn(C[C@H]2CN3CCOc4c(-c5cn[nH]c5)sc(c43)C(=O)N2)c1` [Compound 41, (R)-7-((4-methyl-1H-pyrazol-1-yl)methyl)-2-(1H-pyrazol-4-yl)-4,5,7,8-tetrahydro-3-oxa-1-thia-5a,8-diazabenzo[cd]azulen-9(6H)-one]: less than 1 nM and 87 nM.
Regarding `O=C1NC[C@@H](C2CCOCC2)N2CCOc3c(-c4cn[nH]c4)sc1c32` (single isomer, unassigned) [Compound 27], the IC50 in assay [1] was less than 1 nM; in assay [2] it was 256 nM.
For the molecule `O=C1NCC(C2CCOCC2)N2CCOc3c(-c4cn[nH]c4)sc1c32` (stereo not shown) [Compound 26, 2-(1H-pyrazol-4-yl)-6-(tetrahydro-2H-pyran-4-yl)-4,5,7,8-tetrahydro-3-oxa-1-thia-5a,8-diazabenzo[cd]azulen-9(6H)-one], in assay [1], the IC50 is less than 1 nM.
In the case of `CC1(C)NC(=O)c2sc(-c3ccnc(N)c3)c3c2N1CCO3` [Compound 13, 2-(2-aminopyridin-4-yl)-6,6-dimethyl-4,5,6,7-tetrahydro-8H-3-oxa-1-thia-5a,7-diazaacenaphthylen-8-one], the IC50 in assay [1] fell in the range of 1 to 10 nM.
On to `O=C1NC(C2CCCCO2)CN2CCCc3c(-c4cn[nH]c4)sc1c32` (single isomer, unassigned) [Compound 109], for which, in assay [1], the IC50 is greater than 10 nM.
For the molecule `CC1(C)NC(=O)c2sc(-c3c[nH]c4ncccc34)c3c2N1CCO3` [Compound 9, 6,6-dimethyl-2-(1H-pyrrolo[2,3-b]pyridin-3-yl)-4,5,6,7-tetrahydro-8H-3-oxa-1-thia-5a,7-diazaacenaphthylen-8-one], in assay [1], the IC50 was 1 to 10 nM.
Consider `CC1(C)NC(=O)c2sc(-c3ccncc3)c3c2N1CCCO3` [Compound 3, 5,5-Dimethyl-1-(pyridin-4-yl)-4,5,7,8-tetrahydro-3H,6H-9-oxa-2-thia-4,5a-diazabenzo[cd]azulen-3-one], for which, in assay [1], the IC50 is less than 1 nM.
Regarding `C[C@H]1CN2CC(F)(F)Cc3c(-c4cn[nH]c4)sc(c32)C(=O)N1` [Compound 101, (10S)-6,6-difluoro-10-methyl-3-(1H-pyrazol-4-yl)-2-thia-8,11-diazatricyclo[6.4.1.0^4,13]trideca-1(13),3-dien-12-one], the IC50 in assay [1] is less than 1 nM.
On the same count and under the same terms, next, `Cc1n[nH]cc1-c1sc2c3c1CC(F)(F)CN3C[C@H]([C@H]1CCCO1)NC2=O` (single isomer, unassigned) [Compound 119]: less than 1 nM.
As for `C[C@H]1CN2C(=O)CCc3c(-c4cn[nH]c4)sc(c32)C(=O)N1` [Compound 29, (S)-7-methyl-2-(1H-pyrazol-4-yl)-3,4,7,8-tetrahydro-5H-1-thia-5a,8-diazabenzo[cd]azulene-5,9(6H)-dione], in assay [1], the IC50 was 1 to 10 nM.
On to `O=C1N[C@@H](CN2CCC2)CN2CCOc3c(-c4cn[nH]c4)sc1c32` [Compound 40, (S)-7-(azetidin-1-ylmethyl)-2-(1H-pyrazol-4-yl)-4,5,7,8-tetrahydro-3-oxa-1-thia-5a,8-diazabenzo[cd]azulen-9(6H)-one], for which the IC50 in assay [1] lay in the range of 1 to 10 nM.
Turning to `C[C@H]1CN2CCCc3c(-c4ccncc4)sc(c32)C(=O)N1` [Compound 31, (S)-7-methyl-2-(pyridin-4-yl)-4,5,7,8-tetrahydro-3H-1-thia-5a,8-diazabenzo[cd]azulen-9(6H)-one], the IC50 in assay [1] is 1 to 10 nM.
`Cn1ccc(C2CN3CCOc4c(-c5cn[nH]c5)sc(c43)C(=O)N2)n1` (stereo not shown) [Compound 52]: the IC50 in assay [1] fell in the range of 1 to 10 nM.
On to `O=C1NC2(CCOCC2)CN2CCOc3c(-c4cn[nH]c4)sc1c32` [Compound 64, 2-(1H-pyrazol-4-yl)-2′,3′,4,5,5′,6′-hexahydro-6H-3-oxa-1-thia-5a,8-diazaspiro[benzo[cd]azulene-7,4′-pyran]-2,2a1(9a)-dien-9(8H)-one], for which the IC50 in assay [1] is less than 1 nM.
Still for that read-out and setting: under `O=C1NC[C@H](CO)N2CCCc3c(-c4cn[nH]c4)sc1c32` [Compound 87, (R)-6-(hydroxymethyl)-2-(1H-pyrazol-4-yl)-4,5,7,8-tetrahydro-3H-1-thia-5a,8-diazabenzo[cd]azulen-9(6H)-one] stands less than 1 nM.
In the case of `COC[C@@H]1CNC(=O)c2sc(-c3ccncc3)c3c2N1CCO3` [Compound 105, (S)-6-(methoxymethyl)-2-(pyridin-4-yl)-4,5,7,8-tetrahydro-3-oxa-1-thia-5a,8-diazabenzo[cd]azulen-9(6H)-one], in assay [1], the IC50 is less than 1 nM.
As to `O=C1NC[C@H](COCc2ccccc2)N2CCOc3c(-c4cn[nH]c4)sc1c32` [Compound 35, (R)-6-((benzyloxy)methyl)-2-(1H-pyrazol-4-yl)-4,5,7,8-tetrahydro-3-oxa-1-thia-5a,8-diazabenzo[cd]azulen-9(6H)-one], the IC50 in assay [1] is 1 to 10 nM.
On the same count and under the same terms, next, `O=C1NC[C@@H](CN2CCC2)N2CCOc3c(-c4cn[nH]c4)sc1c32` [Compound 46, (S)-6-(azetidin-1-ylmethyl)-2-(1H-pyrazol-4-yl)-4,5,7,8-tetrahydro-3-oxa-1-thia-5a,8-diazabenzo[cd]azulen-9(6H)-one]: 1 to 10 nM.
With `C[C@H]1CN2C(=O)COc3c(-c4cn[nH]c4)sc(c32)C(=O)N1` [Compound 20, (S)-7-methyl-2-(1H-pyrazol-4-yl)-7,8-dihydro-3-oxa-1-thia-5a,8-diazabenzo[cd]azulene-5,9(4H,6H)-dione], the IC50 in assay [1] is less than 1 nM.
On to `CC1(C)NC(=O)c2sc(-c3ccncn3)c3c2N1CCO3` [Compound 5, 6,6-Dimethyl-2-(pyrimidin-4-yl)-4,5,6,7-tetrahydro-8H-3-oxa-1-thia-5a,7-diazaacenaphthylen-8-one], for which, in assay [1], the IC50 was greater than 10 nM.
For `CC(C)(O)C[C@@H]1CN2CC(F)(F)Oc3c(-c4cn[nH]c4)sc(c32)C(=O)N1` [Compound 117, (R)-4,4-difluoro-7-(2-hydroxy-2-methylpropyl)-2-(1H-pyrazol-4-yl)-4,5,7,8-tetrahydro-3-oxa-1-thia-5a,8-diazabenzo-[cd]azulen-9(6H)-one], the IC50 in assay [1] was less than 1 nM.
With `O=C1NC[C@H](CN2CCC2)N2CCOc3c(-c4cn[nH]c4)sc1c32` [Compound 36, (R)-6-(azetidin-1-ylmethyl)-2-(1H-pyrazol-4-yl)-4,5,7,8-tetrahydro-3-oxa-1-thia-5a,8-diazabenzo[cd]azulen-9(6H)-one], the IC50 in assay [1] lay in the range of 1 to 10 nM.
On to `COC[C@H]1[C@@H](C2CCC2)NC(=O)c2sc(-c3cn[nH]c3)c3c2N1CCO3` (single isomer, unassigned) [Compound 98], for which the IC50 in assay [1] fell in the range of 1 to 10 nM.

The IC50 is the midpoint of a concentration-inhibition curve.
